Laboratory results: ChEMBL document CHEMBL1133442, “Symmetrical bis(heteroarylmethoxyphenyl)alkylcarboxylic acids as inhibitors of leukotriene biosynthesis” (J Med Chem, 2000)
pIC50: −log10 of the molar value.

Assays:
Format in all cases: functional
[1] = organism: Homo sapiens; experiment: Inhibition of calcium ionophore (A-23187) stimulated leukotriene B4 (LTB4) formation in human neutrophils at 390 nM
[2] = system: Rattus norvegicus; experiment: Inhibition of leukotriene production in an ionophore-induced rat pleurisy model at 3 mg/kg; conditions: for inhibition in vivo at 3 mg/kg: Rattus norvegicus
[3] = system: Rattus norvegicus; experiment: In vivo inhibition evaluation of leukotriene inhibition in an ionophore-induced rat pleurisy at 3 mg/kg
[4] = organism: Homo sapiens; experiment: Inhibition of calcium ionophore (A-23187) -stimulated leukotriene B4 (LTB4) formation in human neutrophils at 390 nM; conditions: Homo sapiens

Row | Structure (SMILES) | pIC50 ([1]; Homo sapiens) | inhibition in vivo at 3 mg/kg [2] [%] | further results
1 | O=C(O)C(c1ccc(OCc2ccc3ccccc3n2)cc1)c1ccc(OCc2ccc3ccccc3n2)cc1 | 7.22 |  | 
2 | CC(CCCO/N=C/C(=O)O)(c1ccc(OCc2ccc3ccccc3n2)cc1)c1ccc(OCc2ccc3ccccc3n2)cc1 | 7.52 | 0 | 
3 | O=C(O)C=C(c1ccc(OCc2ccc3ccccc3n2)cc1)c1ccc(OCc2ccc3ccccc3n2)cc1 | 7.30 | 11 | 
4 | CC(C)(CO/N=C/C(=O)O)C(c1ccc(OCc2ccc3ccccc3n2)cc1)c1ccc(OCc2ccc3ccccc3n2)cc1 | 7.47 | 27 | 
5 | CC(CCCO)(c1ccc(OCc2ccc3ccccc3n2)cc1)c1ccc(OCc2ccc3ccccc3n2)cc1 | 6.89 | 7 | 
6 | O=C(O)CON=C1CCC(c2ccc(OCc3ccc4ccccc4n3)cc2)(c2ccc(OCc3ccc4ccccc4n3)cc2)CC1 | 7.19 | 0 | 
7 | O=C([O-])C1CCC(c2ccc(OCc3ccc4ccccc4n3)cc2)(c2ccc(OCc3ccc4ccccc4n3)cc2)CC1.[Na+] | 7.33 |  | Inhibition [2]: 18%
8 | C/C(CCC(=O)O)=N\OC(c1ccc(OCc2ccc3ccccc3n2)cc1)c1ccc(OCc2ccc3ccccc3n2)cc1 | 7.30 |  | ED50 [3]: 1 mg/kg
9 | CC(CCC(=O)[O-])(c1ccc(OCc2ccc3ccccc3n2)cc1)c1ccc(OCc2ccc3ccccc3n2)cc1.[Na+] |  |  | pIC50 [1]: 7.70; ED50 [3]: 3 mg/kg
10 | O=C(O)C1CCC(c2ccc(OCc3ccc4ccccc4n3)cc2)(c2ccc(OCc3ccc4ccccc4n3)cc2)CC1 |  |  | Inhibition [2]: 0%; pIC50 [1]: 7.22
11 | CC(O)(c1ccc(OCc2ccc3ccccc3n2)cc1)c1ccc(OCc2ccc3ccccc3n2)cc1 | 7.30 | 0 | 
12 | CC(CCC(=O)O)(c1ccc(OCc2cnc3ccccc3n2)cc1)c1ccc(OCc2cnc3ccccc3n2)cc1 |  | 14 | inhibition at 0.39 µM [4]: 47%
13 | CC(SCC(=O)O)(c1ccc(OCc2ccc3ccccc3n2)cc1)c1ccc(OCc2ccc3ccccc3n2)cc1 |  | 0 | inhibition at 0.39 µM [4]: 62%
14 | CC(CCC(=O)O)(c1ccc(OCc2ccc3ccccc3n2)cc1)c1ccc(OCc2nc3ccccc3s2)cc1 (configuration not stated) | 7.28 |  | 
15 | C/C(=N\OC(c1ccc(OCc2ccc3ccccc3n2)cc1)c1ccc(OCc2ccc3ccccc3n2)cc1)C(=O)O | 7.68 |  | ED50 [3]: 1.5 mg/kg
16 | O=C(O)CON=C(c1ccc(OCc2ccc3ccccc3n2)cc1)c1ccc(OCc2ccc3ccccc3n2)cc1 | 7.49 | 0 | 

Row | Structure (SMILES) | pIC50 ([1]; Homo sapiens) | inhibition in vivo at 3 mg/kg [2] [%] | further results
17 | CC(CC(c1ccc(OCc2ccc3ccccc3n2)cc1)c1ccc(OCc2ccc3ccccc3n2)cc1)C(=O)O (configuration not stated) [listing 1 of 2 here] |  |  | Inhibition [2]: 43%; inhibition at 0.39 µM [4]: 82%
18 | O=C(O)CO/N=C/C=C(c1ccc(OCc2ccc3ccccc3n2)cc1)c1ccc(OCc2ccc3ccccc3n2)cc1 | 7.59 | 10 | 
19 | C/C(=N\OCC=C(c1ccc(OCc2ccc3ccccc3n2)cc1)c1ccc(OCc2ccc3ccccc3n2)cc1)C(=O)O | 7.70 | 42 | 
20 | O=C(O)/C=N/OCC=C(c1ccc(OCc2ccc3ccccc3n2)cc1)c1ccc(OCc2ccc3ccccc3n2)cc1 |  | 17 | inhibition at 0.39 µM [4]: 100%
21 | C/C(=N\OCCC#CC(O)(c1ccc(OCc2ccc3ccccc3n2)cc1)c1ccc(OCc2ccc3ccccc3n2)cc1)C(=O)O | 7.23 | 40 | 
22 | CC(CC(c1ccc(OCc2ccc3ccccc3n2)cc1)c1ccc(OCc2ccc3ccccc3n2)cc1)C(=O)O (configuration not stated) [listing 2 of 2 here] | 7.34 | 53 | 
23 | O=C(O)CO/N=C/C(c1ccc(OCc2ccc3ccccc3n2)cc1)c1ccc(OCc2ccc3ccccc3n2)cc1 | 7.46 |  | 
24 | CCOC(=O)C1CCC(c2ccc(OCc3ccc4ccccc4n3)cc2)(c2ccc(OCc3ccc4ccccc4n3)cc2)CC1 | 5.72 |  | 
25 | CC(CCC(=O)O)(c1ccc(OCc2ccc3ccccc3c2)cc1)c1ccc(OCc2ccc3ccccc3c2)cc1 | 6.08 |  | 
26 | CC(CCC(=O)O)(c1ccc(OCc2ccc3cc(F)ccc3n2)cc1)c1ccc(OCc2ccc3cc(F)ccc3n2)cc1 | 7.40 | 42 | 
27 | CC(CC(=O)O)(c1ccc(OCc2ccc3ccccc3n2)cc1)c1ccc(OCc2ccc3ccccc3n2)cc1 | 6.77 | 0 | 
28 | O=C(O)C#CC(O)(c1ccc(OCc2ccc3ccccc3n2)cc1)c1ccc(OCc2ccc3ccccc3n2)cc1 |  | 48 | inhibition at 0.39 µM [4]: 98%
29 | OC(c1ccc(OCc2ccc3ccccc3n2)cc1)c1ccc(OCc2ccc3ccccc3n2)cc1 | 6.77 | 2 | 
30 | CC(CC/C=N\OCC(=O)O)(c1ccc(OCc2ccc3ccccc3n2)cc1)c1ccc(OCc2ccc3ccccc3n2)cc1 | 7.40 | 0 | 
31 | CC(C)(/C=N/OCC(=O)O)C(c1ccc(OCc2ccc3ccccc3n2)cc1)c1ccc(OCc2ccc3ccccc3n2)cc1 | 7.55 | 42 | 
